Counter-ions that a name gives are not always drawn.
Key:
[1] = physchem
Text: The composition preferably comprises an acid, preferably fumaric acid.

[2] = white crystalline powder; cited from earlier work

- solubility ([1]; pH 1, simulated gastric fluid): 35.8 mg/mL
- solubility ([1]; pH 6.2, aqueous buffer): 4.6 mg/mL
Structure (SMILES): OCCOCCN1CCN(C2=Nc3ccccc3Sc3ccccc32)CC1 [Quetiapine fumarate, 2-[2-(4-dibenzo[b,f] [1,4]thiazepin-11-yl-1-piperazinyl)ethoxy]ethanol]
- solubility in water [2]: moderately soluble in water

— patent US7959948B2, “Pharmaceutical composition of quetiapine fumarate” (Synthon BV, priority 2007, dated 2011)
